Measurements: the supplement of paper PMC10307832

What was measured:
Test in all cases: relative viability (nuclei count vs DMSO), 5 days (fraction); higher = more cells survive
Kobe2602 + Vorinostat = compound: C1=CC(=CC=C1NC(=S)NNC2=C(C=C(C=C2[N+](=O)[O-])C(F)(F)F)[N+](=O)[O-])F [Kobe2602] + O=C(CCCCCCC(=O)Nc1ccccc1)NO [Vorinostat] (partner 1 µM)
Procedure, shortened: (§1)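 Lung cancer cell lines were seeded in 1536-well plates and dosed by pin tool the next day, with either a single drug or a fixed anchor-drug dose combined with five library-drug doses (not always all listed) spaced in √10 steps. Five days later, one step fixed the cells and stained their nuclei (final 0.05% Triton X-100, 1% formaldehyde, 1 ug/ml Hoechst), and nuclei were counted on 4× images. Relative viability is the nuclei count in treated wells divided by the count in vehicle wells, and each value is the median of duplicate plates.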

[1] = compound: COc1cc2nccc(Oc3ccc(NC(=O)C4(C(=O)Nc5ccc(F)cc5)CC4)cc3)c2cc1OC [Cabozantinib] + CC(C)C[C@H](NC(=O)[C@H](Cc1ccccc1)NC(=O)c1cnccn1)B(O)O [Bortezomib] (partner 0.002 µM)
Procedure, shortened: as §1

Cabozantinib + Alpelisib = compound: COc1cc2nccc(Oc3ccc(NC(=O)C4(C(=O)Nc5ccc(F)cc5)CC4)cc3)c2cc1OC [Cabozantinib] + Cc1nc(NC(=O)N2CCC[C@H]2C(N)=O)sc1-c1ccnc(C(C)(C)C(F)(F)F)c1 [Alpelisib] (partner 2 µM)
Procedure, shortened: as §1

Kobe2602 + AZD7762 = compound: C1=CC(=CC=C1NC(=S)NNC2=C(C=C(C=C2[N+](=O)[O-])C(F)(F)F)[N+](=O)[O-])F [Kobe2602] + NC(=O)Nc1cc(-c2cccc(F)c2)sc1C(=O)N[C@H]1CCCNC1 [AZD7762] (partner 0.2 µM)
Procedure, shortened: as §1

Row | Cell Line | relative viability (Kobe2602 + Vorinostat; first compound 0.2 µM) | relative viability (Kobe2602 + Vorinostat; first compound 0.6325 µM) | relative viability (Kobe2602 + Vorinostat; first compound 2 µM) | relative viability (Kobe2602 + Vorinostat; first compound 6.325 µM) | relative viability (Kobe2602 + Vorinostat; first compound 20 µM) | relative viability ([1]; first compound 0.02 µM) | relative viability ([1]; first compound 0.06325 µM) | relative viability ([1]; first compound 0.2 µM) | relative viability ([1]; first compound 0.6325 µM) | relative viability ([1]; first compound 2 µM) | relative viability (Cabozantinib + Alpelisib; first compound 0.02 µM) | relative viability (Cabozantinib + Alpelisib; first compound 0.06325 µM) | relative viability (Cabozantinib + Alpelisib; first compound 0.2 µM) | relative viability (Cabozantinib + Alpelisib; first compound 0.6325 µM) | relative viability (Cabozantinib + Alpelisib; first compound 2 µM) | relative viability (Kobe2602 + AZD7762; first compound 0.2 µM) | relative viability (Kobe2602 + AZD7762; first compound 0.6325 µM) | relative viability (Kobe2602 + AZD7762; first compound 2 µM) | relative viability (Kobe2602 + AZD7762; first compound 6.325 µM) | relative viability (Kobe2602 + AZD7762; first compound 20 µM)
1 | IA-LM | 0.894 | 0.95 | 0.819 | 0.953 | 0.988 | 0.912 | 0.782 | 0.78 | 0.998 | 0.958 | 0.874 | 0.876 | 0.928 | 0.941 | 0.952 | – | – | – | – | –
2 | LK-2 | 0.295 | 0.334 | 0.376 | 0.305 | 0.551 | – | – | – | – | – | – | 1.22 | 1.08 | 1.23 | 0.856 | 0.464 | 0.385 | 0.427 | 0.302 | 0.553
3 | NCI-H358 | 0.706 | 0.733 | 0.586 | 0.719 | 0.689 | – | – | – | – | – | 0.912 | 1.13 | 0.852 | 0.803 | 0.824 | 0.608 | 0.486 | 0.522 | 0.618 | 0.552
4 | NCI-H520 | 0.702 | 0.775 | 0.637 | 0.691 | 0.731 | 0.878 | 0.73 | 0.703 | 0.483 | 0.515 | 0.92 | 0.928 | 0.958 | 0.713 | 0.833 | – | – | – | – | –
5 | NCI-H522 | 0.949 | 1.05 | 0.964 | 1 | 0.898 | – | – | – | – | – | – | – | – | – | – | 1.02 | 1.14 | 0.855 | 0.954 | 0.859
6 | NCI-H661 | 0.777 | 0.799 | 0.753 | 0.825 | 0.827 | 0.799 | 0.855 | 0.915 | 0.683 | 0.799 | 0.544 | 0.758 | 0.725 | 0.755 | 0.609 | – | – | – | – | –
7 | NCI-H1299 | – | – | – | – | – | 1.01 | 1.03 | 1.03 | 1.01 | 1.05 | 1.06 | 1.06 | 1.12 | 1 | 1.12 | – | – | – | – | –
8 | NCI-H1395 | 0.786 | 1.04 | 0.733 | 0.666 | 0.93 | – | – | – | – | – | 1.13 | 1.21 | 1.06 | 1.13 | 1.06 | 0.35 | 0.428 | 0.406 | 0.422 | 0.406
9 | NCI-H1563 | – | – | – | – | – | 0.92 | 0.875 | 0.904 | 0.824 | 1.08 | 0.931 | 0.916 | 0.912 | 0.864 | 0.806 | – | – | – | – | –
10 | NCI-H1648 | 0.464 | 0.441 | 0.351 | 0.334 | 0.338 | – | – | – | – | – | – | – | – | – | – | 0.741 | 0.656 | 0.586 | 0.624 | 0.66
11 | NCI-H1650 | 0.598 | 0.617 | 0.642 | 0.539 | 0.527 | 0.182 | 0.212 | 0.184 | 0.199 | 0.222 | – | – | – | – | – | – | – | – | – | –
12 | NCI-H1703 | – | – | – | – | – | 0.243 | 0.237 | 0.235 | 0.194 | 0.154 | 0.265 | 0.182 | 0.223 | 0.23 | 0.151 | – | 0.13 | 0.111 | – | 0.173
13 | NCI-H1792 | – | – | – | – | – | 0.848 | 1.19 | 0.858 | 0.946 | 0.975 | 0.721 | 0.799 | 0.721 | 0.557 | 0.657 | 0.553 | 0.792 | 0.593 | 0.578 | 0.769
14 | NCI-H1793 | 0.702 | 0.881 | 0.764 | 0.795 | 0.936 | – | – | – | – | – | 0.845 | 0.864 | 0.561 | 0.759 | 0.637 | 0.654 | 0.352 | 0.641 | 0.287 | 0.539
15 | NCI-H1944 | 0.532 | 0.64 | 0.538 | 0.531 | 0.629 | – | – | – | – | – | – | 0.848 | 0.78 | 0.75 | 0.778 | 0.561 | 0.553 | 0.704 | 0.496 | 0.585
16 | NCI-H2009 | 0.715 | 0.783 | 0.763 | 0.752 | 0.692 | 1.06 | 1.15 | 1.07 | 1.16 | 0.998 | 1.25 | 1.21 | 1.16 | 1.14 | 1.21 | – | – | – | – | –
17 | NCI-H2023 | 0.56 | 0.75 | 0.566 | 0.481 | 0.317 | 0.893 | 0.957 | 0.819 | 0.889 | 1.03 | 0.613 | 0.591 | 0.559 | 0.514 | 0.335 | – | – | – | – | –
18 | NCI-H2170 | 0.765 | 0.813 | 0.732 | 0.717 | 0.84 | – | – | – | – | – | 0.842 | 0.958 | 0.723 | 0.854 | 0.781 | 0.9 | 0.875 | 0.869 | 0.823 | 0.886
19 | NCI-H2228 | 0.649 | 0.744 | 0.522 | 0.425 | 0.611 | 1.04 | 1.47 | 1.33 | 1.11 | 0.926 | 0.794 | 0.922 | 0.784 | 0.564 | 0.711 | – | – | – | – | –
20 | NCI-H2342 | 0.713 | 0.789 | 0.761 | 0.716 | 1.17 | – | – | – | – | – | – | – | – | – | – | 0.47 | 0.448 | 0.704 | 0.461 | 0.655
21 | SK-LU-1 | 0.734 | 0.86 | 0.856 | 0.836 | 0.823 | 1.06 | 1.78 | 1.39 | 0.905 | 1.1 | – | 1.29 | 0.983 | 0.718 | 0.705 | – | – | – | – | –
22 | SK-MES-1 | 1.03 | 1.11 | 1.01 | 0.97 | 0.585 | – | – | – | – | – | 1.08 | 0.993 | 0.846 | 0.826 | 0.816 | – | – | – | – | –
23 | SW 900 | 0.677 | 0.645 | 0.492 | 0.476 | 0.602 | – | – | – | – | – | – | – | – | – | – | 0.7 | 0.551 | 0.496 | 0.657 | 0.595
24 | SW 1573 | 0.743 | 0.868 | 0.676 | 0.868 | 0.77 | 1.23 | 1.05 | 1.09 | 0.951 | 0.875 | 1.02 | 0.719 | 0.77 | 0.792 | 0.651 | – | – | – | – | –
